Assay results: ChEMBL document CHEMBL5154855 (J Med Chem, 2022)
Each block holds one molecule with its values, some of them ahead of it. Active and inactive are the calls of the source. The calls are words filed in the database; no cut-off is given here. Positions of bridges follow the written chain, without caps; N, C: chain ends. Non-standard residues stand in square brackets, D forms with d. Residues, ends and D or L forms follow the SMILES beside them. d2Nal = N[C@H](Cc1ccc2ccccc2c1)C(=O)O; Nle = CCCC[C@H](N)C(=O)O

How the values were obtained:
[1] = target: Melanocortin receptor 5 (Homo sapiens) (UniProt P33032); test: Agonist activity at human MC5R transfected in HEK293 cells co-transfected with GScAMP22F assessed as increase in cAMP level by split luciferase cAMP sensor dynamic assay relative to control; format: functional, cell-based
[2] = target: Melanocortin receptor 4 (Homo sapiens) (UniProt P32245); test: Agonist activity at human MC4R transfected in HEK293T cells co-transfected with GScAMP22F assessed as increase in cAMP level; format: functional, cell-based; conditions: HEK293, filed as agonist
Melanocortin receptor 3 [3] = target: T1, Melanocortin receptor 3 (Homo sapiens, UniProt P41968); test: Agonist activity at human MC3R transfected in HEK293 cells assessed as cAMP accumulation by split-luciferase assay
Melanocortin receptor 3 [4] = target: T1, Melanocortin receptor 3; test: Antagonist activity at human MC3R transfected in HEK293T cells co-transfected with GScAMP22F assessed as inhibition of alpha-MSH-indued cAMP production; format: functional, cell-based; conditions: HEK293, filed as antagonist
[5] = target: Melanocortin receptor 4 (Homo sapiens) (UniProt P32245); test: Antagonist activity at human MC4R transfected in HEK293T cells co-transfected with GScAMP22F assessed as inhibition of alpha-MSH-indued cAMP production; format: functional, cell-based; conditions: HEK293, filed as antagonist
Melanocortin receptor 3 [6] = target: T1, Melanocortin receptor 3; test: Agonist activity at human MC3R transfected in HEK293T cells co-transfected with GScAMP22F assessed as increase in cAMP level; format: functional, cell-based; conditions: HEK293, filed as agonist
[7] = target: Melanocyte-stimulating hormone receptor (Homo sapiens) (UniProt Q01726); test: Agonist activity at human MC1R transfected in HEK293 cells co-transfected with GScAMP22F assessed as increase in cAMP level by split luciferase cAMP sensor dynamic assay relative to control; format: functional, cell-based
Chain of Melanocyte-stimulating hormone receptor (Homo sapiens) (Q01726 whole entry, looked up): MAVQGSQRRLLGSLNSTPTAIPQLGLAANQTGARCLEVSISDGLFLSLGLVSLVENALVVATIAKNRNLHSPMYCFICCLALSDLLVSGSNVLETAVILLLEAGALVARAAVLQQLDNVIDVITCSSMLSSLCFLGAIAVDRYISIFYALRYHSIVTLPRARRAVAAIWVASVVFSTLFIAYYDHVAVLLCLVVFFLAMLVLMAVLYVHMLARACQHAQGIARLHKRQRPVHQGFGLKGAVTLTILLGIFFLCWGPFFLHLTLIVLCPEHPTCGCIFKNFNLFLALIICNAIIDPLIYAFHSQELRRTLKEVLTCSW

Chain of Melanocortin receptor 4 (Homo sapiens) (P32245 whole entry): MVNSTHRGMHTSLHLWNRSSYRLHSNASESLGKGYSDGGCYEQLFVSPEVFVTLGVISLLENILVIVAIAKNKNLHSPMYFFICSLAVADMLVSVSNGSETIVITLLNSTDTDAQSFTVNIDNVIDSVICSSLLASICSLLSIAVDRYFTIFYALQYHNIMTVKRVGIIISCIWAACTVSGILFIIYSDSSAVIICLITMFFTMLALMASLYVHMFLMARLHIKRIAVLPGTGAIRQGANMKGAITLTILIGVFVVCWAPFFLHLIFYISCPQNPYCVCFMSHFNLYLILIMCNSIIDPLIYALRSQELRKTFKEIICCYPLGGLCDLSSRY
T1 sequence (P41968 whole entry): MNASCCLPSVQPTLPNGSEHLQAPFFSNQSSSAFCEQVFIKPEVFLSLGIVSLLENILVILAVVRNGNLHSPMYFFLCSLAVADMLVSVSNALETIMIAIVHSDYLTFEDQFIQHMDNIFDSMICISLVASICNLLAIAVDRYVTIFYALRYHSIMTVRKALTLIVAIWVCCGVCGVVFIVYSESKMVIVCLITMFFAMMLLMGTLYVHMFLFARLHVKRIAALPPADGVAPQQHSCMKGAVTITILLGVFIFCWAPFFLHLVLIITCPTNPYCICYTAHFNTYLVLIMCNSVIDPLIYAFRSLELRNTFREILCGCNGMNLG
Chain of Melanocortin receptor 5 (Homo sapiens) (P33032 whole entry): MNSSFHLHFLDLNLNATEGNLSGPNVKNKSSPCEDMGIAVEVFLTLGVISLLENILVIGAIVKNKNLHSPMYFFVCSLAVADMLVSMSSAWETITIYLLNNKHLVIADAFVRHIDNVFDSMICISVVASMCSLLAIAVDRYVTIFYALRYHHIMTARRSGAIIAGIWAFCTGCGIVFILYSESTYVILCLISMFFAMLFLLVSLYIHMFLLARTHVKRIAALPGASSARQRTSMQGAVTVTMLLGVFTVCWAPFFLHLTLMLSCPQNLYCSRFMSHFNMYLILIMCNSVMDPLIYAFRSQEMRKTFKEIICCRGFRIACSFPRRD

Emax [1]: < 10%
SMILES: CCCC[C@H](NC(=O)[C@@H](NC(=O)[C@@H](N)Cc1ccc(O)cc1)C(C)C)C(=O)NCC(=O)N1CCC[C@H]1C(=O)N[C@H](Cc1ccc2ccccc2c1)C(=O)N[C@@H](CCCN=C(N)N)C(=O)N[C@@H](Cc1c[nH]c2ccccc12)C(=O)N[C@@H](CC(=O)O)C(=O)N[C@@H](CCCN=C(N)N)C(=O)N[C@@H](Cc1ccccc1)C(=O)NCC(N)=O (H-YV[Nle]GP[d2Nal]RWDRFG-NH2)

Activity [2]: Active
SMILES: CCCC[C@H](NC(=O)[C@@H](NC(=O)[C@@H](N)Cc1ccc(O)cc1)C(C)C)C(=O)NCC(=O)N[C@@H](Cc1cnc[nH]1)C(=O)N[C@@H](Cc1ccccc1)C(=O)N[C@@H](CCCNC(=N)N)C(=O)N[C@H](Cc1c[nH]c2ccccc12)C(=O)N[C@@H](CC(=O)O)C(=O)N[C@@H](CCCNC(=N)N)C(=O)N[C@@H](Cc1ccccc1)C(=O)NCC(=O)O

EC50 (Melanocortin receptor 3 [3]): > 10 µM
SMILES: CCCC[C@H](NC(=O)[C@@H](NC(=O)[C@@H](N)Cc1ccc(O)cc1)C(C)C)C(=O)NCC(=O)N[C@@H](Cc1c[nH]cn1)C(=O)N[C@H](Cc1ccc2ccccc2c1)C(=O)N[C@@H](CCCN=C(N)N)C(=O)N[C@@H](Cc1c[nH]c2ccccc12)C(=O)N[C@@H](CC(=O)O)C(=O)N[C@@H](CCCN=C(N)N)C(=O)N[C@@H](Cc1ccccc1)C(=O)NCC(N)=O

Activity (Melanocortin receptor 3 [4]): Active | Activity [5]: Active
SMILES: CCCC[C@H](NC(=O)[C@@H](NC(=O)[C@@H](N)Cc1ccc(O)cc1)C(C)C)C(=O)NCC(=O)N[C@@H](Cc1cnc[nH]1)C(=O)N[C@H](Cc1ccc2ccccc2c1)C(=O)N[C@@H](CCCNC(=N)N)C(=O)N[C@H](Cc1c[nH]c2ccccc12)C(=O)N[C@@H](CC(=O)O)C(=O)N[C@@H](CCCNC(=N)N)C(=O)N[C@@H](Cc1ccccc1)C(=O)NCC(=O)O

SMILES: CC(=O)N[C@@H](CCCNC(=N)N)C(=O)N[C@H]1CSSC[C@@H](C(N)=O)NC(=O)[C@H](Cc2c[nH]c3ccccc23)NC(=O)[C@H](CCCNC(=N)N)NC(=O)[C@@H](Cc2ccccc2)NC(=O)[C@H](Cc2c[nH]cn2)NC(=O)[C@@H](C)NC1=O
Activity (Melanocortin receptor 3 [6]): Active | Activity [2]: Active

Activity (Melanocortin receptor 3 [6]): Active | Activity [2]: Active
SMILES: CCCC[C@H](N)C(=O)N[C@H]1CC(=O)NCCCC[C@@H](C(N)=O)NC(=O)[C@H](Cc2c[nH]c3ccccc23)N(C)C(=O)[C@H](CCCNC(=N)N)NC(=O)[C@@H](Cc2ccccc2)NC(=O)[C@@H]2CCCN2C1=O

Emax [7]: < 10%
SMILES: CCCC[C@H](NC(C)=O)C(=O)N[C@H]1CC(=O)NCCCC[C@@H](C(N)=O)NC(=O)[C@H](Cc2c[nH]c3ccccc23)NC(=O)[C@H](CCCNC(=N)N)NC(=O)[C@@H](Cc2ccc3ccccc3c2)NC(=O)[C@@H]2CCCN2C(=O)[C@@H]2CCCN2C1=O (Ac-[Nle]DPP[d2Nal]RWK-NH2; lactam 2-8)

Activity (Melanocortin receptor 3 [4]): Active | Activity [5]: Active
SMILES: CC(=O)N[C@@H](CCCNC(=N)N)C(=O)N[C@@H]1CSSC[C@H](C(N)=O)NC(=O)[C@H](Cc2c[nH]c3ccccc23)NC(=O)[C@H](CCCNC(=N)N)NC(=O)[C@@H](Cc2ccc3ccccc3c2)NC(=O)[C@H](Cc2c[nH]cn2)NC(=O)[C@@H](C)NC1=O
